Measured values from article PMC11969996, “Minimalistic bis-triarylpyridinium cations: effective antimicrobials against bacterial and fungal pathogens” (RSC Medicinal Chemistry, 2025).
Values after ≈ are worked out from the molar mass of the structure shown. Where two headings read alike, the source gives them in different places.

Key:
C. albicans [1] = test: Mitochondrial membrane depolarization, DiOC6(3) staining, flow cytometry; format: cell-based, Candida albicans; settings: 3.5 hours
E. coli [2] = test: MIC by broth microdilution (EUCAST); format: cell-based; settings: Escherichia coli, CECT101; E. coli CECT 101, MHB, overnight 37 °C; read-out: Minimum inhibitory concentration (MIC90) E. coli
Method: (§1) The Gram-negative bacterial strain E. coli CECT 101 and P. aeruginosa ATCC 27853 were supplied by The Colección Española de Cultivos Tipo (CECT, Valencia, Spain) and the American Type Culture Collection (ATCC, Rockville, MD, USA). The Gram-positive bacterial strain S. aureus ATCC 25923, E. faecalis ATCC 29212 and the fungal strain C. albicans ATCC 1023 were supplied by The American Type Culture Collection (ATCC, Maryland, USA). Bacterial and yeast growth was carried out aerobically overnight at 35 °C in Mueller Hinton agar and Sabouraud dextrose agar, respectively (Scharlau, Spain).
(§2) The MIC of the compounds 1a–d, 2a–d, and 3a–d was determined by a broth microdilution method according to the EUCAST protocol. Briefly, 0.5 McFarland bacterial and fungal suspensions were prepared in Müeller Hinton broth (MHB) and Sabouraud dextrose broth (SDB) media, respectively. In a 96-well plate, serial dilutions of compounds 1a–d, 2a–d, 3a–d starting from 512 to 0 μg mL^−1 were made in MHB and SDB media, respectively. After incubation overnight at 37 °C, results were evaluated according to turbidity. Bacterial growth was determined by measuring absorbance at a wavelength of 600 nm and at 520 nm for fungi.[53–55]

P. aeruginosa = test: MIC by broth microdilution (EUCAST); format: cell-based; settings: Pseudomonas aeruginosa, ATCC27853; P. aeruginosa ATCC 27853, MHB, overnight 37 °C; read-out: Minimum inhibitory concentration (MIC90) P. aeruginosa
Method: as §1, §2

S. aureus [3] = test: MIC by broth microdilution (EUCAST); format: cell-based; settings: Staphylococcus aureus, ATCC25923; S. aureus ATCC 25923, MHB, overnight 37 °C; read-out: Minimum inhibitory concentration (MIC90) S. aureus
Method: as §1, §2

E. faecalis = test: MIC by broth microdilution (EUCAST); format: cell-based, Enterococcus faecalis; settings: E. faecalis ATCC 29212, MHB, overnight 37 °C, read-out: Minimum inhibitory concentration (MIC90) E. faecalis
Method: as §1, §2

C. albicans [4] = test: MIC by broth microdilution (EUCAST); format: cell-based, Candida albicans; settings: overnight 37 °C, read-out: Minimum inhibitory concentration (MIC90) C. albicans
Method: as §1, §2

red blood cells = test: Lysis (hemolysis) assay; format: cell-based; settings: human erythrocytes, 1 hour, 37 °C, 1% DMSO
Method: The hemolysis test was performed following literature procedures.[14] Preparation of the erythrocyte suspension: human blood (6 mL) was transferred to a Falcon tube. The sample was then centrifuged at 10 000 rpm for 10 minutes. After centrifugation, the supernatant was discarded, and the cells were resuspended in 4 mL of 10 mM PBS. This centrifugation and resuspension process was repeated twice to remove plasma residues. Finally, the resulting cell suspension was diluted at a 1 : 20 ratio with 10 mM PBS. Hemolysis assay: a total of 500 μL of the prepared erythrocyte suspension was aliquoted into Eppendorf tubes according to the experimental conditions. The final DMSO concentration in each condition was adjusted to 1%. A 1% Triton™ X-100 solution was used as the positive control (100% hemolysis), while the negative control consisted of erythrocytes suspended in PBS with 1% DMSO (0% hemolysis). Samples were incubated at 37 °C with shaking at 200 rpm for 1 hour. Following incubation, the samples were centrifuged at 10 000 rpm for 10 minutes. Subsequently, 200 μL of the supernatant was collected and transferred to a 96-well plate. Absorbance was measured at 520 nm using a plate reader.

C. albicans [5] = settings: cited from earlier work
S. aureus [6] = settings: cited from earlier work
E. coli [7] = settings: cited from earlier work
[8] = Enterococcus faecalis, ATCC29212
[9] = Candida albicans, ATCC1023, C. albicans ATCC 1023, SDB

Row | Molecule | MIC90 (E. coli [2]) [µM] | MIC90 (P. aeruginosa) [µM] | MIC90 (S. aureus [3]) [µM] | MIC90 (E. faecalis; [8]) [µM] | MIC90 (C. albicans [4]; [9]) [µM] | MIC90 (E. faecalis) [µM] | MIC90 (C. albicans [4]; C. albicans ATCC 1023, SDB) [µM] | MIC (C. albicans [4]; [9]) [µM] | DiOC6(3) fluorescence intensity relative to control (C. albicans [1]; compound at 30 μM) | Lysis20 (red blood cells) [µM] | DiOC6(3) fluorescence intensity relative to control (C. albicans [1]; compound at 6 μM) | MIC (C. albicans [5]) [µM] | MIC (S. aureus [6]) [µM] | MIC (E. coli [7]) [µM]
1 | N#CC(C#N)=NNc1ccc(OC(F)(F)F)cc1 [FCCP, carbonyl cyanide-4-(trifluoromethoxy)phenylhydrazone, reference compound] |  |  |  |  |  |  |  |  | approximately half |  |  |  |  | 
2 | Brc1ccc(-c2cc(-c3ccccc3)cc(-c3ccc(Br)cc3)[n+]2CCCCCCCCCC[n+]2c(-c3ccc(Br)cc3)cc(-c3ccccc3)cc2-c2ccc(Br)cc2)cc1 [1c] | > 103 | > 103 | 13 | 13 | > 103 |  |  |  |  | 27 |  |  |  | 
3 | Brc1ccc(-c2cc(-c3ccc(Br)cc3)[n+](CCCCCCCCCC[n+]3c(-c4ccc(Br)cc4)cc(-c4ccc(Br)cc4)cc3-c3ccc(Br)cc3)c(-c3ccc(Br)cc3)c2)cc1 [1d] | 46 | > 91 | 11 | 6 | > 91 | 6.0 | >91 |  |  | >256 |  |  |  | 
4 | c1ccc(-c2cc(-c3ccccc3)[n+](CCCCCCCCCC[n+]3c(-c4ccccc4)cc(-c4ccccc4)cc3-c3ccccc3)c(-c3ccccc3)c2)cc1 [1a] | 4.4 | 70 | 4.4 | 1.1 | 2.2 to 6.2 |  | 2.2 |  |  | 45 | about one-tenth |  |  | 
5 | CCCCCCCCN=c1ccn(CCCCCCCCCCn2ccc(=NCCCCCCCC)cc2)cc1 [OCT, octenidine] |  |  |  |  |  |  |  |  |  |  |  | 2.93 (≈ 1.61 µg/mL) |  | 
6 | COc1ccc2cc3[n+](cc2c1OC)CCc1cc2c(cc1-3)OCO2 [berberine] |  |  |  |  |  |  |  |  |  |  |  | 24 |  | 
7 | Cc1cc(N)c2ccccc2[n+]1CCCCCCCCCC[n+]1c(C)cc(N)c2ccccc21 [DQA, dequalinium chloride] |  |  |  |  |  |  |  |  |  |  |  | 5.5 | 2.4 | 121
8 | Brc1ccc(-c2cc(-c3ccccc3)[n+](CCCCCCCCCC[n+]3c(-c4ccccc4)cc(-c4ccc(Br)cc4)cc3-c3ccccc3)c(-c3ccccc3)c2)cc1 [1b] | 7.6 | 30 | 7.6 | 1 | 118 |  |  |  |  | 20 |  |  |  | 
9 | benzalkonium chloride [BAC] |  |  |  |  |  |  |  |  |  |  |  |  | 4 | 63

Further lines, with some results ahead:

Row | MIC90 (E. coli [2]) [µM] | MIC90 (P. aeruginosa) [µM] | MIC90 (S. aureus [3]) [µM] | MIC90 (E. faecalis; [8]) [µM] | MIC90 (C. albicans [4]; [9]) [µM] | MIC90 (E. faecalis) [µM] | MIC90 (C. albicans [4]; C. albicans ATCC 1023, SDB) [µM] | MIC (C. albicans [4]; [9]) [µM] | Molecule | DiOC6(3) fluorescence intensity relative to control (C. albicans [1]; compound at 30 μM) | Lysis20 (red blood cells) [µM] | DiOC6(3) fluorescence intensity relative to control (C. albicans [1]; compound at 6 μM) | MIC (C. albicans [5]) [µM] | MIC (S. aureus [6]) [µM] | MIC (E. coli [7]) [µM]
10 | > 585 | > 293 | 146 | > 293 | > 293 |  |  |  | CCC[n+]1c(-c2ccccc2)cc(-c2ccccc2)cc1-c1ccccc1 [3a] |  | >256 | normal DiOC6(3) accumulation |  |  | 
11 | 28 | > 112 | 28 | 3.6 | 2.2 to 6.2 |  | 3.6 |  | CCCCCCCCCCCC[n+]1c(-c2ccccc2)cc(-c2ccccc2)cc1-c1ccccc1 [2a] |  | 31 |  |  |  | 
12 | > 430 | > 215 | 54 | 54 | > 215 |  |  |  | CCC[n+]1c(-c2ccc(Br)cc2)cc(-c2ccccc2)cc1-c1ccc(Br)cc1 [3c] |  | >256 |  |  |  | 
13 | > 320 | > 160 | 40 | 40 | > 160 |  |  |  | CCCCCCCCCCCC[n+]1c(-c2ccc(Br)cc2)cc(-c2ccc(Br)cc2)cc1-c1ccc(Br)cc1 [2d] |  | 42 |  |  |  | 
14 | > 496 | > 248 | 31 | 124 | > 248 |  |  |  | CCC[n+]1c(-c2ccccc2)cc(-c2ccc(Br)cc2)cc1-c1ccccc1 [3b] |  | >256 |  |  |  | 
15 | > 380 | > 190 | 48 | 24 |  |  |  | > 90 | CCC[n+]1c(-c2ccc(Br)cc2)cc(-c2ccc(Br)cc2)cc1-c1ccc(Br)cc1 [3d] |  | >256 |  |  |  | 
16 | 25 | > 200 | 12 | 24 |  |  |  |  | CCCCCCCCCCCC[n+]1c(-c2ccccc2)cc(-c2ccc(Br)cc2)cc1-c1ccccc1 [2b] |  | 26 |  |  |  | 
17 | 178 | > 178 | 22 | 11 | 178 |  |  |  | CCCCCCCCCCCC[n+]1c(-c2ccc(Br)cc2)cc(-c2ccccc2)cc1-c1ccc(Br)cc1 [2c] |  | 26 |  |  |  | 
